The values below come from patent US8742110B2, “Spiroxazolidinone compounds” (Merck Sharp & Dohme Corp., priority 2010, dated 2014).

The target of the assay is SSTR5 (Homo sapiens (Human), UniProt P35346). As to the kind of experiment: SSTR5 binding assay. The note with it: CHO-K1 membranes expressing cloned human SSTR5. The essentials: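 Competition binding on membranes from CHO-K1 cells stably expressing cloned human receptor, using radiolabeled somatostatin in 50 mM Tris-HCl pH 7.8 with EGTA, MgCl2 and protease inhibitors. Unlabeled compounds tested from 0.01 nM to 10,000 nM.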
SSTR5, sequence (P35346 whole entry): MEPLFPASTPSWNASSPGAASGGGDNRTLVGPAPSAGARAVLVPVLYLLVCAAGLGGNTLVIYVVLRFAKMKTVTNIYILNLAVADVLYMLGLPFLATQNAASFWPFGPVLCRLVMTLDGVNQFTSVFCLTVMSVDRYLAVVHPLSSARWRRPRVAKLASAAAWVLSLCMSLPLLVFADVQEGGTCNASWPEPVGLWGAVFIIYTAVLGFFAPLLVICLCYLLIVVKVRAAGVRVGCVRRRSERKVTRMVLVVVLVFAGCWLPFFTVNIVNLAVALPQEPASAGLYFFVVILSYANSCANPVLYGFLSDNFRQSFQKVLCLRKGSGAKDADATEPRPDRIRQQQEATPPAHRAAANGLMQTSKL

Counter-ions that a name gives are not always drawn.

In turn, `CCOc1cc(CN2CCC3(CC2)CN(c2ccccc2C(=O)O)C(=O)O3)cc(OCC)c1-c1ccc(F)cc1` [Example 3-3, 2-{8-[(2,6-Diethoxy-4′-fluorobiphenyl-4-yl)methyl]-2-oxo-1-oxa-3,8-diazaspiro[4.5]dec-3-yl}benzoic acid, TFA salt] gave a concentration for half-maximal inhibition (IC50) of 229 nM.
Consider `CCOc1cc(CN2CCC3(CC2)CN(c2ccc(C(=O)O)nc2)C(=O)O3)cc(OCC)c1-c1ccc(F)cc1` [Example 3-4, 5-{8-[(2,6-Diethoxy-4′-fluorobiphenyl-4-yl)methyl]-2-oxo-1-oxa-3,8-diazaspiro[4.5]dec-3-yl}pyridine-2-carboxylic acid, TFA salt], for which the IC50 came to 1.4 nM.
Next, `CCOc1cc(CN2CCC3(CC2)CN(c2cncc(C(=O)O)c2)C(=O)O3)cc(OCC)c1-c1ccc(F)cc1` [Example 3-5, 5-{8-[(2,6-Diethoxy-4′-fluorobiphenyl-4-yl)methyl]-2-oxo-1-oxa-3,8-diazaspiro[4.5]dec-3-yl}pyridine-3-carboxylic acid, TFA salt]: 2.12 nM; `CCOc1cc(CN2CCC3(CC2)CN(c2ccc(C(C)(C)C(=O)O)cc2)C(=O)O3)cc(OCC)c1-c1ccc(F)cc1` [Example 3-6, 2-(4-{8-[(2,6-Diethoxy-4′-fluorobiphenyl-4-yl)methyl]-2-oxo-1-oxa-3,8-diazaspiro[4.5]dec-3-yl}phenyl)-2-methylpropanoic acid, TFA salt]: 9.47 nM; `CCOc1cc(CN2CCC3(CC2)CN(c2ccc(-c4nn[nH]n4)cc2OC)C(=O)O3)cc(OCC)c1-c1ccc(F)cc1` [Example 3-7, 8-[(2,6-Diethoxy-4′-fluorobiphenyl-4-yl)methyl]-3-[2-methoxy-4-(2H-tetrazol-5-yl)phenyl]-1-oxa-3,8-diazaspiro[4.5]decan-2-one, TFA salt]: 7.06 nM.
Molecule `CCOc1cc(CN2CCC3(CC2)CN(c2ccc(C(=O)O)c(C)c2)C(=O)O3)cc(OCC)c1-c1ccc(F)cc1` [Example 3-8, 4-{8-[(2,6-Diethoxy-4′-fluorobiphenyl-4-yl)methyl]-2-oxo-1-oxa-3,8-diazaspiro[4.5]dec-3-yl}-2-methylbenzoic acid, TFA salt] returned a 50% inhibitory concentration (IC50) of 1.42 nM.
Next, `CCOc1cc(CN2CCC3(CC2)CN(c2ccc(C(=O)O)c(Cl)c2)C(=O)O3)cc(OCC)c1-c1ccc(F)cc1` [Example 3-9, 2-Chloro-4-{8-[(2,6-diethoxy-4′-fluorobiphenyl-4-yl)methyl]-2-oxo-1-oxa-3,8-diazaspiro[4.5]dec-3-yl}benzoic acid, TFA salt]: 1.21 nM; `CCOc1cc(CN2CCC3(CC2)CN(c2ccc(C4(C(=O)O)CC4)cc2)C(=O)O3)cc(OCC)c1-c1ccc(F)cc1` [Example 3-10, 1-(4-{8-[(2,6-Diethoxy-4′-fluorobiphenyl-4-yl)methyl]-2-oxo-1-oxa-3,8-diazaspiro[4.5]dec-3-yl}phenyl)cyclopropanecarboxylic acid, TFA salt]: 8.41 nM.
Next, `CCOc1cc(CN2CCC3(CC2)CN(c2ccc(C(=O)O)cn2)C(=O)O3)cc(OCC)c1-c1ccc(F)cc1` [Example 3-11, 6-{8-[(2,6-Diethoxy-4′-fluorobiphenyl-4-yl)methyl]-2-oxo-1-oxa-3,8-diazaspiro[4.5]dec-3-yl}pyridine-3-carboxylic acid, TFA salt]: 0.941 nM; `CCOc1cc(CN2CCC3(CC2)CN(c2ccc(-c4nn[nH]n4)cc2)C(=O)O3)cc(OCC)c1-c1ccc(F)cc1` [Example 3-12, 8-[(2,6-Diethoxy-4′-fluorobiphenyl-4-yl)methyl]-3-[4-(2H-tetrazol-5-yl)phenyl]-1-oxa-3,8-diazaspiro[4.5]decan-2-one, TFA salt]: 0.323 nM; `CCOc1cc(CN2CCC3(CC2)CN(c2ccc(O)nc2)C(=O)O3)cc(OCC)c1-c1ccc(F)cc1` [Example 3-13, 8-[(2,6-Diethoxy-4-fluorobiphenyl-4-yl)methyl]-3-(6-hydroxypyridin-3-yl)-1-oxa-3,8-diazaspiro[4.5]decan-2-one, TFA salt]: 3.8 nM.
The figure for `CCOc1cc(CN2CCC3(CC2)CN(c2cccc(C(=O)O)c2)C(=O)O3)cc(OCC)c1-c1ccc(F)cc1` [Example 3-14, 3-{8-[(2,6-Diethoxy-4′-fluorobiphenyl-4-yl)methyl]-2-oxo-1-oxa-3,8-diazaspiro[4.5]dec-3-yl}benzoic acid, TFA salt] is 9.15 nM; for `CCOc1cc(CN2CCC3(CC2)CN(c2ccc(C(=O)O)c(C(F)(F)F)c2)C(=O)O3)cc(OCC)c1-c1ccc(F)cc1` [Example 3-15, 4-{8-[(2,6-Diethoxy-4′-fluorobiphenyl-4-yl)methyl]-2-oxo-1-oxa-3,8-diazaspiro[4.5]dec-3-yl}-2-(trifluoromethyl)benzoic acid, TFA salt] it is 2.79 nM.
For `CCOc1cc(CN2CCC3(CC2)CN(c2ccc(C(=O)O)cc2C)C(=O)O3)cc(OCC)c1-c1ccc(F)cc1` [Example 3-16, 4-{8-[(2,6-Diethoxy-4′-fluorobiphenyl-4-yl)methyl]-2-oxo-1-oxa-3,8-diazaspiro[4.5]dec-3-yl}-3-methylbenzoic acid, TFA salt], the concentration for half-maximal inhibition (IC50) was found to be 1.18 nM.
Next, `CCOc1cc(CN2CCC3(CC2)CN(c2cc(C(=O)O)ccn2)C(=O)O3)cc(OCC)c1-c1ccc(F)cc1` [Example 3-17, 2-{8-[(2,6-Diethoxy-4′-fluorobiphenyl-4-yl)methyl]-2-oxo-1-oxa-3,8-diazaspiro[4.5]dec-3-yl}pyridine-4-carboxylic acid, TFA salt]: 2.21 nM.
As for `CCOc1cc(CN2CCC3(CC2)CN(c2ccc(C(=O)O)c(F)c2)C(=O)O3)cc(OCC)c1-c1ccc(F)cc1` [Example 3-18, 4-{8-[(2,6-Diethoxy-4′-fluorobiphenyl-4-yl)methyl]-2-oxo-1-oxa-3,8-diazaspiro[4.5]dec-3-yl}-2-fluorobenzoic acid, TFA salt], the IC50 amounted to 1.15 nM.
Next, `CCOc1cc(CN2CCC3(CC2)CN(c2ccc(C(=O)O)cc2Cl)C(=O)O3)cc(OCC)c1-c1ccc(F)cc1` [Example 3-19, 3-Chloro-4-{8-[(2,6-diethoxy-4′-fluorobiphenyl-4-yl)methyl]-2-oxo-1-oxa-3,8-diazaspiro[4.5]dec-3-yl}benzoic acid, TFA salt]: 0.359 nM; `CCOc1cc(CN2CCC3(CC2)CN(c2ccc(C(=O)O)c(OC)c2)C(=O)O3)cc(OCC)c1-c1ccc(F)cc1` [Example 3-20, 4-{8-[(2,6-Diethoxy-4′-fluorobiphenyl-4-yl)methyl]-2-oxo-1-oxa-3,8-diazaspiro[4.5]dec-3-yl}-2-methoxybenzoic acid, TFA salt]: 0.129 nM.
Next, `CCOc1cc(CN2CCC3(CC2)CN(c2ccc(C(=O)O)cc2F)C(=O)O3)cc(OCC)c1-c1ccc(F)cc1` [Example 3-21, 4-{8-[(2,6-Diethoxy-4′-fluorobiphenyl-4-yl)methyl]-2-oxo-1-oxa-3,8-diazaspiro[4.5]dec-3-yl}-3-fluorobenzoic acid, TFA salt]: 0.437 nM; `CCOc1ccc(-c2cc(F)c(F)cc2F)c(CN2CCC3(CC2)CN(c2ccc(C(=O)O)cc2)C(=O)O3)c1` [Example 4-1, 4-{8-[(4-Ethoxy-2′,4′,5′-trifluorobiphenyl-2-yl)methyl]-2-oxo-1-oxa-3,8-diazaspiro[4.5]dec-3-yl}benzoic acid, TFA salt]: 0.793 nM; `CCOc1ccc(-c2ccc(F)c(F)c2F)c(CN2CCC3(CC2)CN(c2ccc(C(=O)O)cc2)C(=O)O3)n1` [Example 4-2, 4-(8-{[6-Ethoxy-3-(2,3,4-trifluorophenyl)pyridin-2-yl]methyl}-2-oxo-1-oxa-3,8-diazaspiro[4.5]dec-3-yl)benzoic acid, TFA salt]: 13.2 nM.
The figure for `CCOc1ccc(-c2ccc(F)cc2F)c(CN2CCC3(CC2)CN(c2ccc(C(=O)O)cc2)C(=O)O3)c1` [Example 4-3, 4-{8-[(4-Ethoxy-2′,4′-difluorobiphenyl-2-yl)methyl]-2-oxo-1-oxa-3,8-diazaspiro[4.5]dec-3-yl}benzoic acid, TFA salt] is 0.49 nM; for `CCOc1ccc(-c2ccc(F)c(F)c2)c(CN2CCC3(CC2)CN(c2ccc(C(=O)O)cc2)C(=O)O3)c1` [Example 4-4, 4-{8-[(4-Ethoxy-3′,4′-difluorobiphenyl-2-yl)methyl]-2-oxo-1-oxa-3,8-diazaspiro[4.5]dec-3-yl}benzoic acid, TFA salt] it is 0.502 nM.
`CCOc1ccc(-c2ccc(F)c(F)c2F)c(CN2CCC3(CC2)CN(c2ccc(C(=O)O)cc2)C(=O)O3)c1` [Example 4-5, 4-{8-[(4-Ethoxy-2′,3′,4′-trifluorobiphenyl-2-yl)methyl]-2-oxo-1-oxa-3,8-diazaspiro[4.5]dec-3-yl}benzoic acid, TFA salt] registered an IC50 of 0.556 nM.
`CC(C)Oc1ccc(-c2ccc(F)c(F)c2F)c(CN2CCC3(CC2)CN(c2ccc(C(=O)O)cc2)C(=O)O3)c1` [Example 4-6, 4-{8-[(4-(Prop-2-yloxy)-2′,3′,4′-trifluorobiphenyl-2-yl)methyl]-2-oxo-1-oxa-3,8-diazaspiro[4.5]dec-3-yl}benzoic acid, TFA salt] gave an IC50 of 0.546 nM.
Consider `CCOc1cc(CN2CCC3(CC2)CN(c2ccc(C(=O)O)cc2)C(=O)O3)c(-c2ccc(F)c(F)c2F)cc1C` [Example 4-7, 4-{8-[(4-Ethoxy-2′,3′,4′-trifluoro-5-methylbiphenyl-2-yl)methyl]-2-oxo-1-oxa-3,8-diazaspiro[4.5]dec-3-yl}benzoic acid, TFA salt], for which the IC50 came out at 0.409 nM.
With `CCOc1cc(CN2CCC3(CC2)CN(c2ccc(C(=O)O)cc2C)C(=O)O3)c(-c2ccc(F)c(F)c2F)cc1C` [Example 4-8, 4-{8-[(4-Ethoxy-2′,3′,4′-trifluoro-5-methylbiphenyl-2-yl)methyl]-2-oxo-1-oxa-3,8-diazaspiro[4.5]dec-3-yl}-3-methylbenzoic acid, TFA salt], the IC50 stood at 0.474 nM.
Next, `O=C(O)c1ccc(N2CC3(CCN(Cc4cc(C(F)(F)F)ccc4-c4ccc(F)c(F)c4F)CC3)OC2=O)cc1` [Example 4-9, 4-(2-Oxo-8-{[2′,3′,4′-trifluoro-4-(trifluoromethyl)biphenyl-2-yl]methyl}-1-oxa-3,8-diazaspiro[4.5]dec-3-yl)benzoic acid, TFA salt]: 0.439 nM.

By IC50 is commonly meant the point on the concentration scale where inhibition reaches its midpoint.
